From PMC6858373 (Scientific Reports, 2019)
Structures can show the parent of a compound that is named as a salt. Where two headings read alike, the source gives them in different places.

How the values were obtained:
[1] = target: T1, FGF14:Nav1.6 C-tail complex (Homo sapiens, UniProt Q92915+Q9UQD0); test: Split-luciferase complementation assay (LCA) in Clone V double stable HEK293 cells; assay type: cell-based; details: for Split Luciferase Assay Z-score Set 1 / Split Luciferase Assay % Lum Set 1 / Split Luciferase Assay Z-score Set 2 / Split Luciferase Assay %Lum Set 2: CC_NCI screening; for Split Luciferase Assay Z-score Set 1 / Split Luciferase Assay % Lum Set 1: biological replicate Set 1; for Split Luciferase Assay Z-score Set 1 / Split Luciferase Assay Z-score Set 2: normalized to on-plate 0.3% DMSO controls; for Split Luciferase Assay % Lum Set 1 / Split Luciferase Assay %Lum Set 2: normalized to on-plate 0.3% DMSO controls (n=16 per plate); for Split Luciferase Assay Z-score Set 2 / Split Luciferase Assay %Lum Set 2: biological replicate Set 2; for Split Luciferase Assay %Lum Avg: average of Set 1 and Set 2, normalized to 0.3% DMSO controls
T1 construct: polymerase chain reaction (PCR) amplification of the FGF14 open reading frame (nt 1–855); C-terminal fragment of Nav1.6 (amino acids 1763–1976) fused with CD4ΔC-tail (amino acids 1–395); expressed in transfected cells
T1 sequence (Q92915 1-252 isoform Q92915-2): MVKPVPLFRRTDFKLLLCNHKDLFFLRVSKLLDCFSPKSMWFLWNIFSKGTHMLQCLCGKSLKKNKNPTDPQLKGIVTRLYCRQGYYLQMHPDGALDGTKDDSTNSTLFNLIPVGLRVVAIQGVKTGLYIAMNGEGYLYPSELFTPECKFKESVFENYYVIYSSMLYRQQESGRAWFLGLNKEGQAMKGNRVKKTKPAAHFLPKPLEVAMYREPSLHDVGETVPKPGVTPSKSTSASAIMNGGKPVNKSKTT
T1 sequence (Q9UQD0 1763-1976 limits assumed): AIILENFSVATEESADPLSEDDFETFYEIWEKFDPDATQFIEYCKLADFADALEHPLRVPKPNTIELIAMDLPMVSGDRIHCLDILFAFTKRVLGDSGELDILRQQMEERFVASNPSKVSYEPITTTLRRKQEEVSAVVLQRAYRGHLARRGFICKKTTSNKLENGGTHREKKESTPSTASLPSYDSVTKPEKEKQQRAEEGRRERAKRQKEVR

[2] = target: full-length P. pyralis luciferase (Photinus pyralis, UniProt P08659, K549A/L550V/N119G/N50D/S548I); assay type: cell-based
Sequence of full-length P. pyralis luciferase (P08659 whole entry N50D/N119G/S548I/K549A/L550V, looked up): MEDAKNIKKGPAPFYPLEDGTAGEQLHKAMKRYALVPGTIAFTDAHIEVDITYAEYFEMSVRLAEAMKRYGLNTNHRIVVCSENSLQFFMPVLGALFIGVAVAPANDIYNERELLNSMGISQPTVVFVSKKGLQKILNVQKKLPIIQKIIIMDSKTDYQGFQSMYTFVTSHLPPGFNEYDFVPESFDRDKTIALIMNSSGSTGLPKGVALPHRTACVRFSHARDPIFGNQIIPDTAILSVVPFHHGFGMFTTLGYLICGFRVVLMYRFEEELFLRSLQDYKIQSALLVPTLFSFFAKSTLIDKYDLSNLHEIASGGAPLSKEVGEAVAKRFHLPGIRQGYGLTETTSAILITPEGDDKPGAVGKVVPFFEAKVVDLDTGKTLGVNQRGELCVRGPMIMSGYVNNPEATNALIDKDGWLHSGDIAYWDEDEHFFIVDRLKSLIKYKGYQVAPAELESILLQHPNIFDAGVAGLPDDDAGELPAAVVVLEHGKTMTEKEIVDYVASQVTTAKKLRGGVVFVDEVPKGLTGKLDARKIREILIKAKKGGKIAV

Clone V cells = details: human, 16 h, 30 µM
in vitro = details: human
[3] = CC_NCI screening, normalized to on-plate 0.3% DMSO controls

O=c1cc(N2CCOCC2)oc2c(-c3ccccc3)cccc12 [LY 294002]
Split Luciferase Assay Z-score Set 1 [1]: -0.94
Split Luciferase Assay % Lum Set 1 [1]: 88.38%
Split Luciferase Assay Z-score Set 2 [1]: -1.87
Split Luciferase Assay %Lum Set 2 [1]: 76.98%
Split Luciferase Assay %Lum Avg [1]: 82.68%
Luciferase Assay % Lum (full-length luciferase counter-screen) [2, 3]: 80.46%
Luciferase Assay Z-score (full-length luciferase counter-screen) [2, 3]: -2.50
Toxicity Assay Z-score (CTB cell viability) (Clone V cells): -0.14
viability at 16 h, 30 µM (in vitro): 99%

Nc1ccn([C@@H]2O[C@H](CO)[C@@H](O)C2(F)F)c(=O)n1 [Gemcitabine hydrochloride]
Split Luciferase Assay Z-score Set 1 [1]: 0.29
Split Luciferase Assay % Lum Set 1 [1]: 103.60%
Split Luciferase Assay Z-score Set 2 [1]: -0.43
Split Luciferase Assay %Lum Set 2 [1]: 94.67%
Split Luciferase Assay %Lum Avg [1]: 99.13%
Luciferase Assay % Lum (full-length luciferase counter-screen) [2, 3]: 102.42%
Luciferase Assay Z-score (full-length luciferase counter-screen) [2, 3]: 0.31
Toxicity Assay Z-score (CTB cell viability) (Clone V cells): 2.40
viability at 16 h, 30 µM (in vitro; Clone V cells): 117%

Sc1ncnc2nc[nH]c12 [Mercaptopurine]
Split Luciferase Assay Z-score Set 1 [1]: 1.52
Split Luciferase Assay % Lum Set 1 [1]: 118.82%
Split Luciferase Assay Z-score Set 2 [1]: 1.01
Split Luciferase Assay %Lum Set 2 [1]: 112.35%
Split Luciferase Assay %Lum Avg [1]: 115.59%
Luciferase Assay % Lum (full-length luciferase counter-screen) [2, 3]: 102.01%
Luciferase Assay Z-score (full-length luciferase counter-screen) [2, 3]: 0.26
Toxicity Assay Z-score (CTB cell viability) (Clone V cells): 0.87
viability at 16 h, 30 µM (in vitro): 106%

Cc1[nH]c2ccccc2c1CCNCc1ccc(/C=C/C(=O)NO)cc1 [LBH-589]
Split Luciferase Assay Z-score Set 1 [1]: -1.99
Split Luciferase Assay % Lum Set 1 [1]: 75.34%
Split Luciferase Assay Z-score Set 2 [1]: -0.18
Split Luciferase Assay %Lum Set 2 [1]: 97.79%
Split Luciferase Assay %Lum Avg [1]: 86.56%
Luciferase Assay % Lum (full-length luciferase counter-screen) [2, 3]: 101.54%
Luciferase Assay Z-score (full-length luciferase counter-screen) [2, 3]: 0.20
Toxicity Assay Z-score (CTB cell viability) (Clone V cells): 0.78
viability at 16 h, 30 µM (in vitro; Clone V cells): 106%

CC(=O)[C@]1(O)Cc2c(O)c3c(c(O)c2[C@@H](O[C@H]2C[C@H](N)[C@H](O)[C@H](C)O2)C1)C(=O)c1ccccc1C3=O [Idarubicin hydrochloride]
Split Luciferase Assay Z-score Set 1 [1]: 0.12
Split Luciferase Assay % Lum Set 1 [1]: 101.43%
Split Luciferase Assay Z-score Set 2 [1]: -0.69
Split Luciferase Assay %Lum Set 2 [1]: 91.55%
Split Luciferase Assay %Lum Avg [1]: 96.49%
Luciferase Assay % Lum (full-length luciferase counter-screen) [2, 3]: 114.41%
Luciferase Assay Z-score (full-length luciferase counter-screen) [2, 3]: 1.85
Toxicity Assay Z-score (CTB cell viability) (Clone V cells): 1.79
viability at 16 h, 30 µM (in vitro; Clone V cells): 113%

CN(C)c1nc(N(C)C)nc(N(C)C)n1 [Altretamine]
Split Luciferase Assay Z-score Set 1 [1]: -0.59
Split Luciferase Assay % Lum Set 1 [1]: 92.73%
Split Luciferase Assay Z-score Set 2 [1]: 1.85
Split Luciferase Assay %Lum Set 2 [1]: 122.76%
Split Luciferase Assay %Lum Avg [1]: 107.74%
Luciferase Assay % Lum (full-length luciferase counter-screen) [2]: 97.84%
Luciferase Assay Z-score (full-length luciferase counter-screen) [2]: -0.28
Toxicity Assay Z-score (CTB cell viability) (Clone V cells): 0.43
viability at 16 h, 30 µM (in vitro): 103%

O=c1[nH]cc(F)c(=O)[nH]1 [Fluorouracil]
Split Luciferase Assay Z-score Set 1 [1]: 0.64
Split Luciferase Assay % Lum Set 1 [1]: 107.95%
Split Luciferase Assay Z-score Set 2 [1]: 1.34
Split Luciferase Assay %Lum Set 2 [1]: 116.51%
Split Luciferase Assay %Lum Avg [1]: 112.23%
Luciferase Assay % Lum (full-length luciferase counter-screen) [2, 3]: 111.63%
Luciferase Assay Z-score (full-length luciferase counter-screen) [2, 3]: 1.49
Toxicity Assay Z-score (CTB cell viability) (Clone V cells): 0.61
viability at 16 h, 30 µM (in vitro): 104%

CC1(C)CNc2cc(NC(=O)c3cccnc3NCc3ccncc3)ccc21 [MOTESANIB]
Split Luciferase Assay Z-score Set 1 [1]: -1.77
Split Luciferase Assay % Lum Set 1 [1]: 78.05%
Split Luciferase Assay Z-score Set 2 [1]: -0.86
Split Luciferase Assay %Lum Set 2 [1]: 89.47%
Split Luciferase Assay %Lum Avg [1]: 83.76%
Luciferase Assay % Lum (full-length luciferase counter-screen) [2, 3]: 76.36%
Luciferase Assay Z-score (full-length luciferase counter-screen) [2, 3]: -3.03
Toxicity Assay Z-score (CTB cell viability) (Clone V cells): -0.04
viability at 16 h, 30 µM (in vitro; Clone V cells): 99.7%

COc1cc(F)c(F)c(Nc2ccc(I)cc2F)c1NS(=O)(=O)C1(C[C@H](O)CO)CC1 [RDEA119]
Split Luciferase Assay Z-score Set 1 [1]: -7.09
Split Luciferase Assay % Lum Set 1 [1]: 12.28%
Split Luciferase Assay Z-score Set 2 [1]: -7.37
Split Luciferase Assay %Lum Set 2 [1]: 9.36%
Split Luciferase Assay %Lum Avg [1]: 10.82%
Luciferase Assay % Lum (full-length luciferase counter-screen) [2, 3]: 66.81%
Luciferase Assay Z-score (full-length luciferase counter-screen) [2, 3]: -4.25
Toxicity Assay Z-score (CTB cell viability) (Clone V cells): 0.34
viability at 16 h, 30 µM (in vitro): 102%
